Test results from US20020002124A1, “Antimicrobial cleansing compositions” (priority 2000, published 2002).

Assay: Mildness to the skin (drying, stinging) on topical use
Type: in vivo
Conditions: as proton donating agent in the compositions

O=C1CCC(C(=O)O)N1 (stereo not shown) [2-pyrrolidone-5 carboxylic acid]
mildness to the skin and stinging compared with other acids suitable for topical application: milder to the skin and causes less stinging than many other acids
